In ChEMBL document CHEMBL1909046, “DrugMatrix in vitro pharmacology data”:

Key:
[1] = DRUGMATRIX: Atrial Natriuretic Factor (ANF) radioligand binding (ligand: [125I] ANF (rat)); type: cell membranes, Cavia porcellus, Dunkin-Hartley, Adrenal gland, Membrane; settings: Not Active = under 50% inhibition at 10 µM
[2] = biological target: T1, 5-hydroxytryptamine receptor 2C (Homo sapiens, UniProt P28335); assay: DRUGMATRIX: Serotonin (5-Hydroxytryptamine) 5-HT2C radioligand binding (ligand: [3H] Mesulergine); type: cell membranes, CHO-K1, Membrane; settings: Not Active = under 50% inhibition at 10 µM; for Ki: read-out: Ki
T1 sequence (P28335 whole entry): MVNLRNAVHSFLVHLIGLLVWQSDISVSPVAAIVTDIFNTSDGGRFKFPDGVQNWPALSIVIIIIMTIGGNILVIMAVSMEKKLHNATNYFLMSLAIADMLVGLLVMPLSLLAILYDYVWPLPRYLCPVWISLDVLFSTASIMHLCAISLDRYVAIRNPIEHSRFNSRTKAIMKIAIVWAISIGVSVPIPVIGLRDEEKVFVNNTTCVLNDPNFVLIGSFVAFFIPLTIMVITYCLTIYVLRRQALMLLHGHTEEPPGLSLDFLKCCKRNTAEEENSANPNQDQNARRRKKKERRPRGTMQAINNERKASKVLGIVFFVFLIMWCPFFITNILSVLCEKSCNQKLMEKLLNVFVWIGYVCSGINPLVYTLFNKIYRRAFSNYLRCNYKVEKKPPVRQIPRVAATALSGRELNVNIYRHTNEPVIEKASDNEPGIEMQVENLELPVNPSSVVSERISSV

[3] = biological target: Sodium-dependent dopamine transporter (Homo sapiens, UniProt Q01959); assay: DRUGMATRIX: Dopamine Transporter radioligand binding (ligand: [125I] RTI-55); type: cell membranes, CHO-K1, Membrane; settings: Not Active = under 50% inhibition at 10 µM; for Ki: read-out: Ki
Sequence of Sodium-dependent dopamine transporter (Q01959 whole entry): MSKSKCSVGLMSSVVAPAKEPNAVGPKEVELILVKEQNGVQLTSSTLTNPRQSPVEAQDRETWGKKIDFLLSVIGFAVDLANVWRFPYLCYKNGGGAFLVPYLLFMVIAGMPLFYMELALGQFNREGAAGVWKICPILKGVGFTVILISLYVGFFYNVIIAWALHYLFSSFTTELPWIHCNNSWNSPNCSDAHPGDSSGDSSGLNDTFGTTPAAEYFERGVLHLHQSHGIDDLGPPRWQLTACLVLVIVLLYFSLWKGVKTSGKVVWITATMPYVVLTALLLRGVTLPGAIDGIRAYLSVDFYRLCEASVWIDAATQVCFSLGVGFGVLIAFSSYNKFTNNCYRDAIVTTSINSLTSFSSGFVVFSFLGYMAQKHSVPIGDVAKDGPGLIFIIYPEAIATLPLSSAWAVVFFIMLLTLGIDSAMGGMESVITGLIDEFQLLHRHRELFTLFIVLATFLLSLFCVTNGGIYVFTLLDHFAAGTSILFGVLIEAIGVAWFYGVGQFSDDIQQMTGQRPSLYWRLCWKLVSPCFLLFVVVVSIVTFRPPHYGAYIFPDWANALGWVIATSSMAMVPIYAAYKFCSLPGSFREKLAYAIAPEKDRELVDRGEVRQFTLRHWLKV

[4] = DRUGMATRIX: GABAA, Muscimol, Central radioligand binding (ligand: [3H] Muscimol); type: cell membranes, Rattus norvegicus, Wistar, Brain, Membrane; settings: Not Active = under 50% inhibition at 10 µM
[5] = biological target: Melanocortin receptor 4 (Homo sapiens, UniProt P32245); type: cell membranes, HEK293, Membrane; further: in other assays of this panel Not Active means under 50% inhibition at 10 µM
Sequence of Melanocortin receptor 4 (P32245 whole entry): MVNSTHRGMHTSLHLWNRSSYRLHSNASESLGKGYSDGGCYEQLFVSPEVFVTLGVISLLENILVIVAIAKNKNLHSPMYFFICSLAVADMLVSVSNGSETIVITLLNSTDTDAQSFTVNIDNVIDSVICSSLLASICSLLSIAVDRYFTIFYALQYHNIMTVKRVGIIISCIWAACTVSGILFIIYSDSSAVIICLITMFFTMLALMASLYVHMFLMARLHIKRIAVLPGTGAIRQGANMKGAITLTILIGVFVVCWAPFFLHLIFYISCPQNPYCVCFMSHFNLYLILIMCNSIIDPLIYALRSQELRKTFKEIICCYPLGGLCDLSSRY

[6] = biological target: Cytochrome P450 2E1 (Homo sapiens, UniProt P05181); settings: bti-tn-5b1-4; further: in other assays of this panel Not Active means under 50% inhibition at 10 µM
Sequence of Cytochrome P450 2E1 (P05181 whole entry): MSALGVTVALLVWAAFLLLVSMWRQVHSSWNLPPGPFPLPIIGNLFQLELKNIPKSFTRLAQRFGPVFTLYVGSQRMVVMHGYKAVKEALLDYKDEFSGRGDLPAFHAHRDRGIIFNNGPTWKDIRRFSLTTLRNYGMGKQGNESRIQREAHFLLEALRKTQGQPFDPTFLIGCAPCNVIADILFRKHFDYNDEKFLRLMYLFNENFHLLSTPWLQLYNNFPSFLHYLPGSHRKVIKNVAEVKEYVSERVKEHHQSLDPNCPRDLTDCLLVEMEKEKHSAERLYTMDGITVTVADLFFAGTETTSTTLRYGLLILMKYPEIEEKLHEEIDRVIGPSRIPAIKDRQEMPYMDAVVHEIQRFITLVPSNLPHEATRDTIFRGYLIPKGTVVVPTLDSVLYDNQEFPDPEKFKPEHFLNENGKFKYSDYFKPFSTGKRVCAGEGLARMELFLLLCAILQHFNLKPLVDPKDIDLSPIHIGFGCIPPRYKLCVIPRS

SMILES | IC50 [1] | Ki [1] | IC50 ([2]; cho-k1) | IC50 ([3]; read-out: IC50) [µM] | Ki [3] [µM] | IC50 [4] | Ki [4] | IC50 ([5]; hek293) | IC50 [6] | Ki [6] | IC50 ([3]; cho-k1) | IC50 ([2]; read-out: IC50) [µM] | Ki [2] [µM] | IC50 ([5]; read-out: IC50) [µM] | Ki ([5]; read-out: Ki) [µM]
CC(C)(C)NC(=O)[C@@H]1C[C@@H]2CCCC[C@@H]2CN1C[C@@H](O)[C@H](Cc1ccccc1)NC(=O)[C@H](CC(N)=O)NC(=O)c1ccc2ccccc2n1 | Not Active | Not Active | Not Active | 35.1 | 27.9 | Not Active | Not Active | Not Active | Not Active | Not Active |  |  |  |  | 
CC(=O)[C@@]1(O)CC[C@H]2[C@@H]3C[C@H](C)C4=CC(=O)CC[C@]4(C)[C@H]3CC[C@@]21C | Not Active | Not Active | Not Active |  |  | Not Active | Not Active | Not Active | Not Active | Not Active | Not Active |  |  |  | 
N[C@@H](Cc1ccc(N(CCCl)CCCl)cc1)C(=O)O | Not Active | Not Active | Not Active |  |  | Not Active | Not Active | Not Active | Not Active | Not Active | Not Active |  |  |  | 
CCCCc1oc2ccccc2c1C(=O)c1cc(I)c(OCCN(CC)CC)c(I)c1 [AMIODARONE] |  |  |  |  |  |  |  |  | Not Active | Not Active |  |  |  |  | 
OCCN(CCO)c1nc(N2CCCCC2)c2nc(N(CCO)CCO)nc(N3CCCCC3)c2n1 [DIPYRIDAMOLE] | Not Active | Not Active | Not Active |  |  | Not Active | Not Active | Not Active | Not Active | Not Active | Not Active |  |  |  | 
Cc1oncc1C(=O)Nc1ccc(C(F)(F)F)cc1 [LEFLUNOMIDE] | Not Active | Not Active | Not Active | 2.88 | 2.29 | Not Active | Not Active | Not Active | Not Active | Not Active |  |  |  |  | 
c1ccc([C@H]2CN3CCSC3=N2)cc1 [LEVAMISOLE] | Not Active | Not Active | Not Active |  |  | Not Active | Not Active | Not Active | Not Active | Not Active | Not Active |  |  |  | 
N[C@@H](Cc1ccc(O)c(O)c1)C(=O)O [LEVODOPA] | Not Active | Not Active | Not Active |  |  | Not Active | Not Active | Not Active | Not Active | Not Active | Not Active |  |  |  | 
N[C@@H](Cc1cc(I)c(Oc2ccc(O)c(I)c2)c(I)c1)C(=O)O [LIOTHYRONINE] |  |  | Not Active |  |  |  |  | Not Active | Not Active | Not Active | Not Active |  |  |  | 
O=NN(CCCl)C(=O)NC1CCCCC1 [LOMUSTINE] | Not Active | Not Active | Not Active |  |  | Not Active | Not Active | Not Active | Not Active | Not Active | Not Active |  |  |  | 
CCOC(=O)N1CCC(=C2c3ccc(Cl)cc3CCc3cccnc32)CC1 [LORATADINE] | Not Active | Not Active | Not Active |  |  | Not Active | Not Active | Not Active | Not Active | Not Active | Not Active |  |  |  | 
Cn1ccnc1S [METHIMAZOLE] | Not Active | Not Active | Not Active |  |  | Not Active | Not Active | Not Active | Not Active | Not Active | Not Active |  |  |  | 
CC[C@@H](CO)NC(=O)[C@@H]1C=C2c3cccc4[nH]cc(c34)C[C@H]2N(C)C1 [METHYLERGONOVINE] | Not Active | Not Active |  |  |  | Not Active | Not Active | Not Active | Not Active | Not Active | Not Active | 0.013 | 0.00656 |  | 
COc1nc(C)nc(Cl)c1NC1=NCCN1 [MOXONIDINE] | Not Active | Not Active | Not Active |  |  | Not Active | Not Active | Not Active | Not Active | Not Active | Not Active |  |  |  | 
COc1c(C)c2c(c(O)c1C/C=C(\C)CCC(=O)O)C(=O)OC2 [MYCOPHENOLIC ACID] | Not Active | Not Active | Not Active |  |  | Not Active | Not Active | Not Active | Not Active | Not Active | Not Active |  |  |  | 
O=c1ncn2nc(Sc3ccc(F)cc3F)ccc2c1-c1c(Cl)cccc1Cl [NEFLAMAPIMOD] | Not Active | Not Active | Not Active | 8.1 | 6.43 | Not Active | Not Active | Not Active | Not Active | Not Active |  |  |  |  | 
CN1CCN(CCCN2c3ccccc3Sc3ccc(Cl)cc32)CC1 [PROCHLORPERAZINE] |  |  |  |  |  |  |  | Not Active | Not Active | Not Active |  |  |  |  | 
CO[C@H]1/C=C/O[C@@]2(C)Oc3c(C)c(O)c4c(O)c(c(/C=N/N5CCN(C)CC5)c(O)c4c3C2=O)NC(=O)/C(C)=C\C=C\[C@H](C)[C@H](O)[C@@H](C)[C@@H](O)[C@@H](C)[C@H](OC(C)=O)[C@@H]1C [RIFAMPIN] | Not Active | Not Active | Not Active |  |  | Not Active | Not Active | Not Active | Not Active | Not Active | Not Active |  |  |  | 
Nc1nc2ccc(OC(F)(F)F)cc2s1 [RILUZOLE] | Not Active | Not Active | Not Active |  |  | Not Active | Not Active | Not Active |  |  | Not Active |  |  |  | 
Cc1nc2n(c(=O)c1CCN1CCC(c3noc4cc(F)ccc34)CC1)CCCC2 [RISPERIDONE] |  |  |  |  |  |  |  | Not Active | Not Active | Not Active | Not Active |  |  |  | 
C=CCC1(C(C)CCC)C(=O)NC(=O)NC1=O (configuration not stated) [SECOBARBITAL] | Not Active | Not Active | Not Active |  |  | Not Active | Not Active | Not Active | Not Active | Not Active | Not Active |  |  |  | 
C[C@@H]1CN(c2c(F)c(N)c3c(=O)c(C(=O)O)cn(C4CC4)c3c2F)C[C@H](C)N1 [SPARFLOXACIN] | Not Active | Not Active | Not Active |  |  | Not Active | Not Active | Not Active | Not Active | Not Active | Not Active |  |  |  | 
Cc1noc(NS(=O)(=O)c2ccc(N)cc2)c1C [SULFISOXAZOLE] | Not Active | Not Active | Not Active |  |  | Not Active | Not Active | Not Active | Not Active | Not Active | Not Active |  |  |  | 
CC/C(=C(\c1ccccc1)c1ccc(OCCN(C)C)cc1)c1ccccc1 [TAMOXIFEN] |  |  |  | 1.84 | 1.46 |  |  |  | Not Active | Not Active |  | 0.46 | 0.241 | 30.5 | 29.3
CC(C)N1CCN(c2ccc(OCC3COC(Cn4cncn4)(c4ccc(Cl)cc4Cl)O3)cc2)CC1 (configuration not stated) [TERCONAZOLE] |  |  |  |  |  | Not Active | Not Active | Not Active | Not Active | Not Active |  | 6.96 | 3.65 |  | 
